Results as given in PubChem BioAssay (NCI).
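Cells were grown in 96-well plates and exposed to each compound for 48 hours at five concentrations; endpoints were interpolated linearly between bracketing concentrations, or set to the highest concentration if not reached. GI50: concentration for 50% inhibition of growth. The concentration for full growth arrest is given as TGI.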

Key:
Assay in all cases: NCI anticancer screen, dose series, 48 h; in the data active = GI50 below about 0.43 µM; inactive = the rest
[1] = test system: NCI-H23 lung
[2] = test system: NCI-H460 lung
[3] = test system: NCI/ADR-RES ovarian
[4] = test system: OVCAR-3 ovarian
[5] = test system: OVCAR-4 ovarian
[6] = test system: OVCAR-5 ovarian
[7] = test system: OVCAR-8 ovarian
[8] = test system: PC-3 prostate
[9] = test system: RPMI-8226 leukemia
[10] = test system: RXF 393 renal
[11] = test system: SF-268 CNS
[12] = test system: SF-295 CNS
[13] = test system: SF-539 CNS
[14] = test system: SK-MEL-2 melanoma
[15] = test system: SK-MEL-28 melanoma
[16] = test system: SK-MEL-5 melanoma
[17] = test system: SK-OV-3 ovarian
[18] = test system: SN12C renal
[19] = test system: SNB-19 CNS
[20] = test system: SNB-75 CNS
[21] = test system: SR leukemia
[22] = test system: SW-620 colon
[23] = test system: T-47D breast
[24] = test system: TK-10 renal
[25] = test system: U251 CNS
[26] = test system: UACC-62 melanoma
[27] = test system: UO-31 renal

CCCCc1ccc(NS(=O)(=O)c2cc3c4c(c2)CCN4C(=O)CC3)cc1
78 µM: TGI [20]
45.4 µM: TGI [16]
72.1 µM: TGI [23]
55 µM: TGI [24]
65.2 µM: TGI [26]
93.8 µM: TGI [12]
57 µM: TGI [9]
62.5 µM: TGI [10]
inactive: GI50 [2] 28.2 µM | GI50 [3] 7.97 µM | GI50 [4] 22.6 µM | GI50 [5] 25.1 µM | GI50 [6] 35.8 µM | GI50 [7] 19.7 µM | GI50 [8] 11.7 µM | GI50 [9] 7.79 µM | GI50 [10] 16.1 µM | GI50 [11] 30.3 µM | GI50 [12] 13.4 µM | GI50 [13] 24.4 µM | GI50 [14] 17.5 µM | GI50 [15] 39.3 µM | GI50 [16] 8.25 µM | GI50 [17] 34.9 µM | GI50 [18] 34.6 µM | GI50 [19] 29.8 µM | GI50 [20] 18.4 µM | GI50 [21] 7.35 µM | GI50 [22] 33.5 µM | GI50 [23] 5.48 µM | GI50 [24] 15.1 µM | GI50 [25] 23.5 µM | GI50 [26] 6.1 µM | GI50 [27] 12.8 µM
63.6 µM: TGI [14]
> 100 µM: TGI [1] | TGI [2] | TGI [3] | TGI [4] | TGI [5] | TGI [6] | TGI [7] | TGI [8] | TGI [11] | TGI [13] | TGI [15] | TGI [17] | TGI [18] | TGI [19] | TGI [21] | TGI [22] | TGI [25] | TGI [27]
